HELM strings list units from the 5' end as sugar, base in round brackets, then linkage (d deoxyribose, r ribose, m 2'-O-methyl, p phosphodiester). Strings are as the collection lists them, not checked against the first reports. ss, as = sense and antisense strand; [lna] = locked nucleic acid (LNA); [una] = unlocked nucleic acid; [fl2r] = 2'-fluoro

Consider 20 substances from the OligoGym collection.
Also: test system not given here.

For this data set the following is noted: siRNA.
Substance “RNA1{m(U)p.r(U)p.m(A)p.r(C)p.m(A)p.r(A)p.m(A)p.r(G)p.m(G)p.r(A)p.m(U)p.r(C)p.m(U)p.r(C)p.m(C)p.r(U)p.m(C)p.r(C)p.m(C)p.r(T)p.r(T)}|RNA2{r(G)p.r(G)p.r(G)p.r(A)p.r(G)p.r(G)p.r(A)p.r(G)p.r(A)p.r(U)p.m(C)p.m(C)p.r(U)p.r(U)p.r(U)p.r(G)p.r(U)p.r(A)p.r(A)p.r(T)p.r(T)}$$$RNA1{StrandType:ss}|RNA2{StrandType:as}$” came in with a target mRNA knockdown of 57%. With “RNA1{r(A)p.r(A)p.m(U)p.r(A)p.r(A)p.r(G)p.m(C)p.r(A)p.r(G)p.r(C)p.r(U)p.r(C)p.r(G)p.m(C)p.r(G)p.r(C)p.r(U)p.r(C)p.r(C)p.r(T)p.r(T)}|RNA2{r(G)p.r(G)p.r(A)p.r(G)p.r(C)p.r(G)p.r(C)p.r(G)p.r(A)p.r(G)p.r(C)p.m(U)p.r(G)p.r(C)p.r(U)p.m(U)p.r(A)p.r(U)p.r(U)p.r(T)p.r(T)}$$$RNA1{StrandType:ss}|RNA2{StrandType:as}$”, the target mRNA knockdown came out at 51%. To “RNA1{r(C)p.r(U)p.r(U)p.r(A)p.r(C)p.r(G)p.r(C)p.r(U)p.r(G)p.r(A)p.r(G)p.r(U)p.r(A)p.r(C)p.r(U)p.r(U)p.r(C)p.r(G)p.r(A)p.r(T)p.r(T)}|RNA2{r(U)p.r(C)p.r(G)p.r(A)p.r(A)p.r(G)p.r(U)p.r(A)p.r(C)p.r(U)p.r(C)p.[lna](A)p.r(G)p.r(C)p.r(G)p.r(U)p.r(A)p.r(A)p.r(G)p.r(T)p.r(T)}$$$RNA1{StrandType:ss}|RNA2{StrandType:as}$” belongs 89%. To “RNA1{r(A)p.r(A)p.r(G)p.r(G)p.r(A)p.r(C)p.r(C)p.m(U)p.r(A)p.r(G)p.r(A)p.r(G)p.r(G)p.r(A)p.r(G)p.r(U)p.m(C)p.m(A)p.r(C)p.r(T)p.r(T)}|RNA2{r(G)p.m(U)p.r(G)p.r(A)p.r(C)p.r(U)p.r(C)p.r(C)p.r(U)p.r(C)p.m(U)p.r(A)p.r(G)p.r(G)p.r(U)p.r(C)p.r(C)p.r(U)p.r(U)p.r(T)p.r(T)}$$$RNA1{StrandType:ss}|RNA2{StrandType:as}$” belongs 78%; to “RNA1{r(G)p.r(A)p.m(U)p.r(A)p.r(C)p.r(U)p.r(U)p.r(C)p.m(U)p.r(G)p.r(G)p.r(U)p.r(U)p.r(C)p.r(C)p.r(C)p.r(U)p.r(C)p.r(C)p.r(T)p.r(T)}|RNA2{r(G)p.r(G)p.r(A)p.r(G)p.r(G)p.r(G)p.r(A)p.r(A)p.r(C)p.m(C)p.r(A)p.r(G)p.r(A)p.r(A)p.r(G)p.m(U)p.r(A)p.r(U)p.r(C)p.r(T)p.r(T)}$$$RNA1{StrandType:ss}|RNA2{StrandType:as}$”, 45%. The result for “RNA1{r(A)p.r(G)p.[fl2r](U)p.r(A)p.r(A)p.r(U)p.r(C)p.r(C)p.r(G)p.r(G)p.r(A)p.r(C)p.r(U)p.r(C)p.r(A)p.r(A)p.r(C)p.r(U)p.r(C)p.r(T)p.r(T)}|RNA2{r(G)p.r(A)p.r(G)p.r(U)p.r(U)p.r(G)p.r(A)p.r(G)p.r(U)p.r(C)p.r(C)p.r(G)p.r(G)p.r(A)p.r(U)p.[fl2r](U)p.r(A)p.r(C)p.r(U)p.r(T)p.r(T)}$$$RNA1{StrandType:ss}|RNA2{StrandType:as}$” reads 69%; that for “RNA1{r(G)p.r(U)p.r(A)p.r(U)p.r(G)p.r(A)p.r(C)p.r(C)p.r(G)p.r(A)p.r(C)p.r(U)p.r(A)p.r(C)p.r(G)p.r(C)p.r(G)p.r(U)p.r(A)p.r(T)p.r(T)}|RNA2{r(U)p.r(U)p.r(C)p.r(A)p.r(G)p.r(U)p.r(G)p.r(U)p.r(G)p.r(A)p.r(U)p.r(G)p.r(A)p.[una](C)p.r(A)p.r(C)p.r(U)p.r(U)p.r(G)p.r(T)p.r(T)}$$$RNA1{StrandType:ss}|RNA2{StrandType:as}$”, 64%.

“RNA1{r(G)p.r(A)p.r(C)p.[fl2r](C)p.r(A)p.r(C)p.r(G)p.r(A)p.r(A)p.r(G)p.r(A)p.r(G)p.r(U)p.[fl2r](U)p.r(A)p.r(A)p.r(C)p.r(C)p.r(C)p.r(T)p.r(T)}|RNA2{r(G)p.r(G)p.r(G)p.r(U)p.[fl2r](U)p.r(A)p.r(A)p.r(C)p.r(U)p.r(C)p.r(U)p.r(U)p.r(C)p.r(G)p.[fl2r](U)p.r(G)p.r(G)p.r(U)p.r(C)p.r(T)p.r(T)}$$$RNA1{StrandType:ss}|RNA2{StrandType:as}$” gave a target mRNA knockdown of 85%. To “RNA1{r(A)p.r(A)p.r(A)p.r(C)p.r(C)p.r(U)p.r(C)p.r(A)p.r(G)p.r(C)p.r(C)p.r(C)p.m(U)p.m(A)p.r(A)p.r(C)p.r(G)p.r(G)p.r(U)p.r(T)p.r(T)}|RNA2{r(A)p.r(C)p.r(C)p.r(G)p.r(U)p.m(U)p.r(A)p.r(G)p.r(G)p.r(G)p.r(C)p.r(U)p.r(G)p.r(A)p.r(G)p.r(G)p.r(U)p.r(U)p.r(U)p.r(T)p.r(T)}$$$RNA1{StrandType:ss}|RNA2{StrandType:as}$” belongs 69%; to “RNA1{r(A)p.r(C)p.r(C)p.r(U)p.m(U)p.r(A)p.r(A)p.r(G)p.r(G)p.r(A)p.r(C)p.m(C)p.r(A)p.r(C)p.r(C)p.r(G)p.r(G)p.r(A)p.r(U)p.r(T)p.r(T)}|RNA2{r(A)p.r(U)p.r(C)p.r(C)p.r(G)p.r(G)p.m(U)p.r(G)p.r(G)p.r(U)p.r(C)p.r(C)p.r(U)p.m(U)p.r(A)p.r(A)p.r(G)p.r(G)p.r(U)p.r(T)p.r(T)}$$$RNA1{StrandType:ss}|RNA2{StrandType:as}$”, 72%; to “RNA1{m(C)p.r(U)p.m(G)p.r(A)p.m(C)p.r(C)p.m(G)p.r(G)p.m(A)p.r(A)p.m(G)p.r(C)p.m(G)p.r(C)p.m(U)p.r(U)p.m(A)p.r(A)p.r(A)p.r(T)p.r(T)}|RNA2{r(U)p.r(U)p.r(U)p.r(A)p.r(A)p.r(G)p.r(C)p.r(G)p.m(C)p.r(U)p.r(U)p.r(C)p.m(C)p.r(G)p.r(G)p.r(U)p.m(C)p.r(A)p.r(G)p.r(T)p.r(T)}$$$RNA1{StrandType:ss}|RNA2{StrandType:as}$”, 27%. On to “RNA1{m(A)p.r(G)p.m(C)p.r(G)p.m(A)p.r(U)p.m(C)p.r(C)p.m(C)p.r(G)p.m(A)p.r(A)p.m(C)p.r(A)p.m(A)p.r(G)p.m(U)p.r(A)p.m(U)p.r(T)p.r(T)}|RNA2{r(A)p.r(U)p.r(A)p.m(C)p.r(U)p.r(U)p.r(G)p.r(U)p.r(U)p.m(C)p.r(G)p.r(G)p.r(G)p.r(A)p.r(U)p.m(C)p.r(G)p.m(C)p.r(U)p.r(T)p.r(T)}$$$RNA1{StrandType:ss}|RNA2{StrandType:as}$”, for which the target mRNA knockdown came out at 34%. In turn, “RNA1{r(G)p.r(C)p.r(U)p.r(G)p.[fl2r](U)p.r(A)p.r(A)p.r(C)p.r(C)p.r(U)p.r(C)p.r(G)p.r(G)p.r(A)p.r(G)p.r(A)p.r(G)p.r(U)p.r(U)p.r(T)p.r(T)}|RNA2{r(A)p.r(A)p.r(C)p.r(U)p.r(C)p.r(U)p.r(C)p.r(C)p.r(G)p.r(A)p.r(G)p.r(G)p.r(U)p.[fl2r](U)p.r(A)p.r(C)p.r(A)p.r(G)p.r(C)p.r(T)p.r(T)}$$$RNA1{StrandType:ss}|RNA2{StrandType:as}$” showed a target mRNA knockdown of 69%. With “RNA1{r(C)p.r(U)p.r(U)p.r(A)p.r(C)p.r(G)p.r(C)p.r(U)p.r(G)p.r(A)p.r(G)p.r(U)p.r(A)p.r(C)p.r(U)p.r(U)p.r(C)p.r(G)p.r(A)p.[lna](T)p.[lna](T)}|RNA2{[lna](T)p.r(C)p.r(G)p.r(A)p.r(A)p.r(G)p.r(U)p.r(A)p.r(C)p.r(U)p.r(C)p.r(A)p.r(G)p.r(C)p.r(G)p.r(U)p.r(A)p.r(A)p.r(G)p.[lna](T)p.[lna](T)}$$$RNA1{StrandType:ss}|RNA2{StrandType:as}$”, the target mRNA knockdown was 27%.

On to “RNA1{r(G)p.r(C)p.m(U)p.r(G)p.r(A)p.r(G)p.r(G)p.r(A)p.r(A)p.r(A)p.r(G)p.r(G)p.m(G)p.r(A)p.m(C)p.r(A)p.r(U)p.r(C)p.r(U)p.r(T)p.r(T)}|RNA2{r(A)p.r(G)p.r(A)p.m(U)p.r(G)p.r(U)p.r(C)p.r(C)p.r(C)p.r(U)p.r(U)p.r(U)p.r(C)p.r(C)p.r(U)p.m(C)p.r(A)p.r(G)p.r(C)p.r(T)p.r(T)}$$$RNA1{StrandType:ss}|RNA2{StrandType:as}$”, for which the target mRNA knockdown came to 76%.

Substance “RNA1{r(G)p.r(A)p.r(C)p.r(G)p.r(U)p.r(A)p.r(A)p.r(A)p.r(C)p.r(G)p.r(G)p.r(C)p.r(C)p.r(A)p.r(C)p.r(A)p.r(A)p.r(G)p.r(U)p.[lna](T)p.[lna](C)}|RNA2{[fl2r](A)p.m(C)p.[fl2r](U)p.m(U)p.[fl2r](G)p.m(U)p.[fl2r](G)p.m(G)p.[fl2r](C)p.m(C)p.[fl2r](G)p.m(U)p.[fl2r](U)p.m(U)p.[fl2r](A)p.m(C)p.[fl2r](G)p.m(U)p.[fl2r](C)p.m(G)p.[fl2r](C)}$$$RNA1{StrandType:ss}|RNA2{StrandType:as}$” gave a target mRNA knockdown of 81.2%. “RNA1{m(A)p.r(G)p.m(A)p.r(A)p.m(A)p.r(C)p.m(G)p.r(C)p.m(A)p.r(G)p.m(U)p.r(A)p.m(A)p.r(U)p.m(C)p.r(C)p.m(G)p.r(G)p.m(A)p.r(T)p.r(T)}|RNA2{r(U)p.r(C)p.r(C)p.m(G)p.m(G)p.r(A)p.r(U)p.r(U)p.r(A)p.r(C)p.r(U)p.m(G)p.r(C)p.m(G)p.r(U)p.r(U)p.r(U)p.r(C)p.r(U)p.r(T)p.r(T)}$$$RNA1{StrandType:ss}|RNA2{StrandType:as}$” showed a target mRNA knockdown of 36%. As to “RNA1{d(G)p.d(C)p.d(A)p.d(G)p.d(C)p.d(A)p.d(C)p.d(G)p.d(A)p.d(C)p.d(U)p.d(U)p.d(C)p.d(U)p.d(U)p.d(C)p.d(A)p.d(A)p.d(G)p.r(T)p.r(T)}|RNA2{r(C)p.r(U)p.r(U)p.r(G)p.r(A)p.r(A)p.r(G)p.r(A)p.r(A)p.r(G)p.r(U)p.r(C)p.r(G)p.r(U)p.r(G)p.r(C)p.r(U)p.r(G)p.r(C)p.r(T)p.r(T)}$$$RNA1{StrandType:ss}|RNA2{StrandType:as}$”, the target mRNA knockdown was 38%.

Substance “RNA1{r(A)p.r(A)p.r(A)p.r(C)p.r(G)p.r(A)p.m(G)p.r(A)p.r(G)p.r(A)p.r(G)p.r(C)p.r(C)p.m(C)p.r(A)p.r(C)p.r(C)p.r(U)p.r(U)p.r(T)p.r(T)}|RNA2{r(A)p.r(A)p.r(G)p.r(G)p.m(U)p.m(G)p.r(G)p.r(G)p.r(C)p.r(U)p.r(C)p.r(U)p.r(C)p.r(U)p.r(C)p.r(G)p.r(U)p.r(U)p.r(U)p.r(T)p.r(T)}$$$RNA1{StrandType:ss}|RNA2{StrandType:as}$” returned a target mRNA knockdown of 56%.

The substance “RNA1{r(A)p.r(U)p.r(C)p.r(G)p.r(A)p.r(C)p.r(C)p.m(U)p.r(G)p.r(A)p.r(A)p.r(G)p.r(G)p.r(A)p.r(G)p.m(U)p.r(A)p.r(C)p.r(G)p.r(T)p.r(T)}|RNA2{r(C)p.r(G)p.m(U)p.r(A)p.r(C)p.r(U)p.r(C)p.r(C)p.r(U)p.r(U)p.r(C)p.r(A)p.r(G)p.r(G)p.r(U)p.r(C)p.r(G)p.r(A)p.r(U)p.r(T)p.r(T)}$$$RNA1{StrandType:ss}|RNA2{StrandType:as}$” returned a target mRNA knockdown of 30%.
